Patent publication US20240166646A1, “1H-PYRROLO[2,3-B]PYRIDINE DERIVATIVES AS BCL-2 INHIBITORS FOR THE TREATMENT OF NEOPLASTIC AND AUTOIMMUNE DISEASES” (Newave Pharmaceutical Inc., priority 2020, published 2024)
Counter-ions that a name gives are not always drawn.

Legend:
[1] = target: Bcl-2 (Homo sapiens (Human), UniProt P10415); assay: Bcl-2 competition binding (fluorescence polarization) assay; settings: fluorescein labeled BH3 peptide 15 nM, Bcl-2 protein 30 nM, 3 hours of incubation at room temperature
Protocol: Biological Example 1: Bcl-2 Competition Binding (Fluorescence Polarization) Assay
The fluorescence-labeled 23 amino acid peptide BH3 was purchased from CalBiochem ([…]). […] This binding assay was performed in 96-well plate and with each assay contained 15 and 30 nM of labeled peptide and purified Bcl-2 protein (purchased from R&D Systems, Inc). The assay buffer contained 20 mM Hepes (pH 7.0), 50 mM KCl, 5 mM MgCl2, 20 mM Na2MoO4, 0.1 mg/mi Bovine Gamma Globulin and 0.01% NP40. Compounds were diluted in DMS0 and added to the final assay with concentration range from 20 μM to 2 nM. The polarization degree (mP) value was determined by BioTek Synergy II with background subtraction after 3 hours of incubation at room temperature. IC50 was calculated using Prism software with sigmoidal dose-response curve fitting. ABT-737 was used as reference compound. Such assays, carried out with a range of doses of test compounds, allowed the determination of an approximate IC50 value.

[2] = test system: BCL-2-dependent acute lymphoblastic leukemia (ALL) cell line RS4; 11 with G101V mutation; assay: In vitro anti-proliferation assay (ATPlite) in RS4; 11 with G101V mutation; type: cell-based; settings: about 72 hours incubation, medium with 5% FBS or 10% normal human serum, ATPlite luminescence
Protocol: Cell antiproliferation was assayed by PerkinElmer ATPlite™ Luminescence Assay System. Briefly, the various test cancer cell lines were plated at a density of about 1×10^4 cells per well in Costar 96-well plates, and were incubated with different concentrations of compounds for about 72 hours in medium supplemented with 5% FBS or 10% normal human serum (NHS). One lyophilized substrate solution vial was then reconstituted by adding 5 mL of substrate buffer solution, and was agitated gently until the solution was homogeneous. About 50 μL of mammalian cell lysis solution was added to 100 μL of cell suspension per well of a microplate, and the plate was shaken for about five minutes in an orbital shaker at ˜700 rpm. This procedure was used to lyse the cells and to stabilize the ATP. Next, 50 μL substrate solution was added to the wells and microplate was shaken for five minutes in an orbital shaker at ˜700 rpm. Finally, the luminescence was measured by a PerkinElmer TopCount® Microplate Scintillation Counter. Such assays, carried out with a range of doses of test compounds, allowed the determination of the cellular anti-antiproliferative IC50 of the compounds of the present invention.

Sequence of Bcl-2 (P10415 whole entry): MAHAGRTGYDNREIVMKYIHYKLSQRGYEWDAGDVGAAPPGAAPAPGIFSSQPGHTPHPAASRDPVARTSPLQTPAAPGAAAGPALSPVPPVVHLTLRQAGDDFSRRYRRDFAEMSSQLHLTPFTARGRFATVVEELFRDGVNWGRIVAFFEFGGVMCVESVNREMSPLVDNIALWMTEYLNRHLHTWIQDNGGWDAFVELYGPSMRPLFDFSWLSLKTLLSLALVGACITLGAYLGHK

Cc1ccccc1C1CC(C)(C)CN1C1CC2(CCN(c3ccc(C(=O)NS(=O)(=O)c4ccc(NCC5CCOCC5)c([N+](=O)[O-])c4)c(N4c5cc6cc[nH]c6nc5O[C@@H]5COC[C@H]54)c3)CC2)C1 (stereo partly drawn) [Example 61, 4-{2-[4,4-dimethyl-2-(2-methylphenyl)pyrrolidin-1-yl]-7-azaspiro[3.5]nonan-7-yl}-2-[(11R,15S)-13,16-dioxa-2,4,10-triazatetracyclo[7.7.0.0^{3,7}.0^{11,15}]hexadeca-1(9),2,5,7-tetraen. 10-yl]-N-{3-nitro-4-[(oxan-4-ylmethyl)amino]benzenesulfonyl}benzamide]
IC50 [1]: 0.707 nM
IC50 [2]: 130 nM

CC(C)c1ccsc1[C@@H]1CCCN1C1CC2(CCN(c3ccc(C(=O)NS(=O)(=O)c4ccc(NCC5CCOCC5)c([N+](=O)[O-])c4)c(N4c5cc6cc[nH]c6nc5O[C@@H]5COC[C@H]54)c3)CC2)C1 [Example 63, 4-(2-((S)-2-(3-isopropylthiophen-2-yl)pyrrolidin-1-yl)-7-azaspiro[3.5]nonan-7-yl)-N-((3-nitro-4-(((tetrahydro-2H-pyran-4-yl)methyl)amino)phenyl)sulfonyl)-2-((5aR,8aS)-5a,6,8,8a-tetrahydrofuro[3,4-b]pyrrolo[3′,2′:5,6]pyrido[3,2-e][1,4]oxazin-5(1H)-yl)benzamide hydrochloride]
IC50 [1]: 0.314 nM
IC50 ([2]; RS4-11): 49.6 nM

CO[C@]1(C)CC[C@H](CNc2ccc(S(=O)(=O)NC(=O)c3ccc(N4CCC5(CC4)CC(N4CCC[C@H]4c4ccccc4C(C)C)C5)cc3N3c4cc5cc[nH]c5nc4O[C@@H]4COC[C@H]43)cc2[N+](=O)[O-])CC1 [Example 37, 4-(2-((S)-2-(2-isopropylphenyl)pyrrolidin-1-yl)-7-azaspiro[3.5]nonan-7-yl)-N-((4-((((1s,4s)-4-methoxy-4-methylcyclohexyl)methyl)amino)-3-nitrophenyl)sulfonyl)-2-((5aR,8aS)-5a,6,8,8a-tetrahydrofuro[3,4-b]pyrrolo[3′,2′:5,6]pyrido[3,2-e][1,4]oxazin-5(1H)-yl)benzamide hydrochloride]
IC50 [1]: 0.358 nM
IC50 [2]: 15.2 nM

CC(C)Oc1ccccc1[C@@H]1CCCN1C1CC2(CCN(c3ccc(C(=O)NS(=O)(=O)c4ccc(NCC5CCOCC5)c([N+](=O)[O-])c4)c(N4c5cc6cc[nH]c6nc5O[C@H]5COCC[C@H]54)c3)CC2)C1 [Example 64, 2-[(3R,8R)-2,5-dioxa-9,15,17-triazatetracyclo[8.7.0.0^{3,8}.0^{12,16}]heptadeca-1(10),11,13,16-tetraen-9-yl]-4-{2-[(2S)-2-(2-isopropoxyphenyl)pyrrolidin-1-yl]-7-azaspiro[3.5]nonan-7-yl}-N-{3-nitro-4-[(oxan-4-ylmethyl)amino]benzenesulfonyl}benzamide]
IC50 [1]: 0.341 nM
IC50 [2]: 62.4 nM

CC(C)c1ccccc1[C@@H]1CCCN1C1CC2(CCN(c3ccc(C(=O)NS(=O)(=O)c4ccc(NCC5CCOCC5)c([N+](=O)[O-])c4)c(N4c5cc6cc[nH]c6nc5O[C@@H]5COC[C@H]54)c3)CC2)C1 [Example 1, 2-[(11R,15S)-13,16-dioxa-2,4,10-triazatetracyclo[7.7.0.0^[3,7]0.0^[11,15]]hexadeca-1(9),2,5,7-tetraen-10-yl]-4-[2-[(2S)-2-(2-isopropylphenyl)pyrrolidin-1-yl]-7-azaspiro[3.5]nonan-7-yl]-N-[3-nitro-4-[(oxan-4-ylmethyl)amino]benzenesulfonyl]benzamide]
IC50 [1]: 0.1 nM
IC50 [2]: 5.1 nM

CC(C)Oc1ccccc1[C@@H]1CCCN1C1CC2(CCN(c3ccc(C(=O)NS(=O)(=O)c4ccc(NC[C@H]5COCCO5)c([N+](=O)[O-])c4)c(N4c5cc6cc[nH]c6nc5O[C@@H]5COC[C@H]54)c3)CC2)C1 [Example 43, N-((4-((((S)-1,4-dioxan-2-yl)methyl)amino)-3-nitrophenyl)sulfonyl)-4-(2-((S)-2-(2-isopropoxyphenyl)pyrrolidin-1-yl)-7-azaspiro[3.5]nonan-7-yl)-2-((5aR,8aS)-5a,6,8,8a-tetrahydrofuro[3,4-b]pyrrolo[3′,2′:5,6]pyrido[3,2-e][1,4]oxazin-5(1H)-yl)benzamide]
IC50 [1]: 0.28 nM
IC50 ([2]; RS4-11): 86.4 nM

Cc1ccccc1[C@@H]1CCCN1C1CC2(CCN(c3ccc(C(=O)NS(=O)(=O)c4ccc(NCC5(F)CCOCC5)c([N+](=O)[O-])c4)c(N4c5cc6cc[nH]c6nc5O[C@@H]5COC[C@H]54)c3)CC2)C1 [Example 38, N-((4-(((4-fluorotetrahydro-2H-pyran-4-yl)methyl)amino)-3-nitrophenyl)sulfonyl)-2-((5aR,8aS)-5a,6,8,8a-tetrahydrofuro[3,4-b]pyrrolo[3′,2′:5,6]pyrido[3,2-e][1,4]oxazin-5(1H)-yl)-4-(2-((S)-2-(o-tolyl)pyrrolidin-1-yl)-7-azaspiro[3.5]nonan-7-yl)benzamide]
IC50 [1]: 0.202 nM
IC50 ([2]; RS4-11): 13.6 nM

Cc1ccccc1[C@@H]1CCCN1C1CC2(CCN(c3ccc(C(=O)NS(=O)(=O)c4ccc(NCC5CCOCC5)c([N+](=O)[O-])c4)c(N4c5cc6cc[nH]c6nc5O[C@@H]5COC[C@H]54)c3)CC2)C1 [Example 4, 2-[(11R,15S)-13,16-dioxa-2,4,10-triazatetracyclo[7.7.0.0^{3,7}.0^{11,15}]hexadeca-1(9),2,5,7-tetraen-10-yl]-4-{2-[(2S)-2-(2-methylphenyl)pyrrolidin-1-yl]-7-azaspiro[3.5]nonan-7-yl}-N-{3-nitro-4-[(oxan-4-ylmethyl)amino]benzenesulfonyl}benzamide]
IC50 [1]: 0.183 nM
IC50 [2]: 28.3 nM

Cc1ccccc1[C@@H]1CCCN1C1CC2(CCN(c3ccc(C(=O)NS(=O)(=O)c4ccc(NC[C@H]5COCCO5)c([N+](=O)[O-])c4)c(N4c5cc6cc[nH]c6nc5O[C@@H]5COC[C@H]54)c3)CC2)C1 [Example 39, N-((4-((((S)-1,4-dioxan-2-yl)methyl)amino)-3-nitrophenyl)sulfonyl)-2-((5aR,8aS)-5a,6,8,8a-tetrahydrofuro[3,4-b]pyrrolo[3′,2′:5,6]pyrido[3,2-e][1,4]oxazin-5(1H)-yl)-4-(2-((S)-2-(o-tolyl)pyrrolidin-1-yl)-7-azaspiro[3.5]nonan-7-yl)benzamide]
IC50 [1]: 0.19 nM
IC50 ([2]; RS4-11): 49.2 nM

CC(C)(C)c1ccccc1[C@@H]1CCCN1C1CC2(CCN(c3ccc(C(=O)NS(=O)(=O)c4ccc(NCC5CCOCC5)c([N+](=O)[O-])c4)c(N4c5cc6cc[nH]c6nc5O[C@@H]5COC[C@H]54)c3)CC2)C1 [Example 46, 4-{2-[(2S)-2-(2-tert-butylphenyl)pyrrolidin-1-yl]-7-azaspiro[3.5]nonan-7-yl}-2-[(11R,15S)-13,16-dioxa-2,4,10-triazatetracyclo[7.7.0.0^{3,7}.0^{11,15}]hexadeca-1(9),2,5,7-tetraen-10-yl]-N-{3-nitro-4-[(oxan-4-ylmethyl)amino]benzenesulfonyl}benzamide]
IC50 [1]: 0.398 nM
IC50 [2]: 58.2 nM

O=C(NS(=O)(=O)c1ccc(NCC2CCOCC2)c([N+](=O)[O-])c1)c1ccc(N2CCC3(CC2)CC(N2CCC[C@H]2c2ccccc2F)C3)cc1N1c2cc3cc[nH]c3nc2O[C@@H]2COC[C@H]21 [Example 24, 2-[(11R,15S)-13,16-dioxa-2,4,10-triazatetracyclo[7.7.0.0^{3,7}.0^{11,15}]hexadeca-1(9),2,5,7-tetraen-10-yl]-4-{2-[(2S)-2-(2-fluorophenyl)pyrrolidin-1-yl]-7-azaspiro[3.5]nonan-7-yl}-N-{3-nitro-4-[(oxan-4-ylmethyl)amino]benzenesulfonyl}benzamide hydrochloride]
IC50 [1]: 0.42 nM
